Experiment [1] has as its target cGMP-inhibited 3',5'-cyclic phosphodiesterase 3A (Homo sapiens, UniProt Q14432). The format is functional.
The target of experiment [2] is Beta-2 adrenergic receptor (Homo sapiens, UniProt P07550).
The target of experiment [3] is T1, Equilibrative nucleoside transporter 1 (Homo sapiens, UniProt Q99808).
T1 sequence (Q99808 whole entry): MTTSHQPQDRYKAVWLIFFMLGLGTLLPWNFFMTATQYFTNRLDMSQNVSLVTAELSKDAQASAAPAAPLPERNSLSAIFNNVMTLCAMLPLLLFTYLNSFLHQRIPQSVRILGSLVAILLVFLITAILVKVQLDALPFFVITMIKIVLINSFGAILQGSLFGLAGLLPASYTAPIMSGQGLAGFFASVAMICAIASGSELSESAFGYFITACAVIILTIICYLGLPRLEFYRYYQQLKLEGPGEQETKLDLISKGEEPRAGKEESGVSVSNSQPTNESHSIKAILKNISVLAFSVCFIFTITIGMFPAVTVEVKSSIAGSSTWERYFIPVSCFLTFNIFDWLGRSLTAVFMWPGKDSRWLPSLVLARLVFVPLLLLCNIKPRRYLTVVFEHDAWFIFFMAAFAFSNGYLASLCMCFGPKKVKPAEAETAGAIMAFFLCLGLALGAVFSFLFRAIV

Experiment [4] deals with T2, Estrogen receptor (Homo sapiens, UniProt P03372).
T2 sequence (P03372 whole entry): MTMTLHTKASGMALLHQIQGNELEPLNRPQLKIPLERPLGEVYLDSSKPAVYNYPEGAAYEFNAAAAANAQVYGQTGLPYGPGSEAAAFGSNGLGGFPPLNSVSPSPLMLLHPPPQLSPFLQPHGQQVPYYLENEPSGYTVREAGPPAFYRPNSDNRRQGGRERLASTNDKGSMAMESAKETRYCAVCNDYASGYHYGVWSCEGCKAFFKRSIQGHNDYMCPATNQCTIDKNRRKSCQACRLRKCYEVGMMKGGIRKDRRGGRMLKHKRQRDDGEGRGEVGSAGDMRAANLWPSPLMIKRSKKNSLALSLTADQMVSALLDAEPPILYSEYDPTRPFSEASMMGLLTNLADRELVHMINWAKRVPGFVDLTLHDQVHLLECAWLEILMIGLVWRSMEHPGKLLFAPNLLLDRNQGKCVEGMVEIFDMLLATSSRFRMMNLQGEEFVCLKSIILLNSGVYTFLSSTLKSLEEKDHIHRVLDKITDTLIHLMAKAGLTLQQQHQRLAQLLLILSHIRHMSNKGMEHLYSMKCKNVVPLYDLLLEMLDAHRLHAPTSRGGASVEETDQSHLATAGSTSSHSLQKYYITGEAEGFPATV

The target of experiment [5] is T3, Muscarinic acetylcholine receptor M1 (Homo sapiens, UniProt P11229).
T3 sequence (P11229 whole entry): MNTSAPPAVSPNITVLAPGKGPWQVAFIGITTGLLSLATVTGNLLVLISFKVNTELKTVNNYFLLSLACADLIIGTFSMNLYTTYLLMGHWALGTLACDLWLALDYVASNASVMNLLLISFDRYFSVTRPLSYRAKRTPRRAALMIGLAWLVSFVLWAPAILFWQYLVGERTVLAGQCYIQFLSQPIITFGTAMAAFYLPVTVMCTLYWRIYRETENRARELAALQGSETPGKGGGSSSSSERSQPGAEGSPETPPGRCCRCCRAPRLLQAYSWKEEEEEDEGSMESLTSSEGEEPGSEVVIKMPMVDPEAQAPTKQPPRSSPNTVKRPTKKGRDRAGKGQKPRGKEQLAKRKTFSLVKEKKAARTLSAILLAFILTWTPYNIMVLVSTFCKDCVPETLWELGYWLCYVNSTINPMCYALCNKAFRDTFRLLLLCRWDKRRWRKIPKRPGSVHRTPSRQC
The format is functional, cell-based.

Experiment [6] deals with Beta-1 adrenergic receptor (Homo sapiens, UniProt P08588). The format is functional.
Beta-1 adrenergic receptor, sequence (P08588 whole entry): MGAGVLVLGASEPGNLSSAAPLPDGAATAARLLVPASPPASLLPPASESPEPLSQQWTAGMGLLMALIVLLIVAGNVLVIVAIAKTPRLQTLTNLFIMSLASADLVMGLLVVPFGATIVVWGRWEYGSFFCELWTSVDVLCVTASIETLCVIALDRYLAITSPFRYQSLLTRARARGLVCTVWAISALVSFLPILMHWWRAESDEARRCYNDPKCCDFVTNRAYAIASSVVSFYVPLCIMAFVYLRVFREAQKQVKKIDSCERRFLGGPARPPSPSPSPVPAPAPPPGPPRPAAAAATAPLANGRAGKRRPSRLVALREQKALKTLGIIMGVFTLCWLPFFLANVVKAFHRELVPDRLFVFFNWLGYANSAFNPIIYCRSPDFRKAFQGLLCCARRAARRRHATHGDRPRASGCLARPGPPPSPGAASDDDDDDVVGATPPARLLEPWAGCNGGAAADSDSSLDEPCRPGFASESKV
Experiment [7] has as its target T4, Adenosine receptor A1 (Homo sapiens, UniProt P30542).
T4 sequence (P30542 whole entry): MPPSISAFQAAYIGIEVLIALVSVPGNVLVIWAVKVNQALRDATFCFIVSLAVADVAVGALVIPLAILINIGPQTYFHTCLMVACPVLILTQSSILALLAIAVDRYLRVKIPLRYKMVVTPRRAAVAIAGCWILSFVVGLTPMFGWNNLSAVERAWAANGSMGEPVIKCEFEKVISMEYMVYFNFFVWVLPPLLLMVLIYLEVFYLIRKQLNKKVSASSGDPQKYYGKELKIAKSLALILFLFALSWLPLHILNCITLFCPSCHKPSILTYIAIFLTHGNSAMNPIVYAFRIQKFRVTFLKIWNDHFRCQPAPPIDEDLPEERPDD

In experiment [8] the target is D(1A) dopamine receptor (Homo sapiens, UniProt P21728). The format is functional, cell-based.
D(1A) dopamine receptor, sequence (P21728 whole entry): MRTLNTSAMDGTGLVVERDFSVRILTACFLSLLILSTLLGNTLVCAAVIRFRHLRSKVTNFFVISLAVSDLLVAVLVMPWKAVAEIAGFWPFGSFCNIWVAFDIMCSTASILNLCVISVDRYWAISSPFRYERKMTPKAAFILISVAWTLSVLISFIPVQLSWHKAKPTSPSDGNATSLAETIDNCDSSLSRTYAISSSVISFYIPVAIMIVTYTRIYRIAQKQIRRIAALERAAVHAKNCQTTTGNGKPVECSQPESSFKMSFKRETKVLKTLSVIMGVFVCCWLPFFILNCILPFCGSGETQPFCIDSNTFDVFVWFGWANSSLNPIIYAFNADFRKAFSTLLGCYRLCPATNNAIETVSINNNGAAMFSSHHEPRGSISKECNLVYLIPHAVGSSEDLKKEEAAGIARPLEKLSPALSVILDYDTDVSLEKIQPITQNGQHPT
Experiment [9] deals with T5, 5-hydroxytryptamine receptor 2B (Homo sapiens, UniProt P41595). The format is functional, cell-based.
T5 sequence (P41595 whole entry): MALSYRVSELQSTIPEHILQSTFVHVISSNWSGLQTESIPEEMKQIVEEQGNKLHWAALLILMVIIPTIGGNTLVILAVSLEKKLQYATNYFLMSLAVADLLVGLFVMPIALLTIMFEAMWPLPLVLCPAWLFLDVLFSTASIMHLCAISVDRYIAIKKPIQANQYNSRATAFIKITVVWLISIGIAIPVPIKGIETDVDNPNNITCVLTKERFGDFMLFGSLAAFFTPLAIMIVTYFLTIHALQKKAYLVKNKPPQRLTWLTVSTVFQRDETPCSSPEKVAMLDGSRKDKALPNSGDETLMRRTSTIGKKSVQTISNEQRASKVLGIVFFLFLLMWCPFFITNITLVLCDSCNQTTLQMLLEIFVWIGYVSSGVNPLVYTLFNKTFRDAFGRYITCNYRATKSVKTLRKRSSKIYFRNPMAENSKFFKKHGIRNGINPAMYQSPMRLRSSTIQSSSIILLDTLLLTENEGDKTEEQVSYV
Experiment [10] addresses T3, Muscarinic acetylcholine receptor M1. The format is functional, cell-based. The source holds these as a separate data set.
Experiment [11] has as its target T6, Gastrin/cholecystokinin type B receptor (Homo sapiens, UniProt P32239).
T6 sequence (P32239 whole entry): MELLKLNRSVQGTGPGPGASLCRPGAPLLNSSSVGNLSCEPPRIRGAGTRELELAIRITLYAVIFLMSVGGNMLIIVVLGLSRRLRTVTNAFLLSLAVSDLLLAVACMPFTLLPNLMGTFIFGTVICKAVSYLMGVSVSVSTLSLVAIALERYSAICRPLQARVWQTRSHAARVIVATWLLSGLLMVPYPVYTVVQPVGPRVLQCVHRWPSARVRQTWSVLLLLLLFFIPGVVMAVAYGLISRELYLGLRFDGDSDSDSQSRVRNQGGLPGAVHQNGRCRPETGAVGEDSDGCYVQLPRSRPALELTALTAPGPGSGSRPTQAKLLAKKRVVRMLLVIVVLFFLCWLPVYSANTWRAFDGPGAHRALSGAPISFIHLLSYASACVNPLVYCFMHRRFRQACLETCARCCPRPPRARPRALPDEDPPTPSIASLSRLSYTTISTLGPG

Experiment [12] concerns the target T5, 5-hydroxytryptamine receptor 2B. The format is functional, cell-based. This is another data set of the same source.
Further: assay procedure not described here.

cGMP-inhibited 3',5'-cyclic phosphodiesterase 3A, sequence (Q14432 whole entry): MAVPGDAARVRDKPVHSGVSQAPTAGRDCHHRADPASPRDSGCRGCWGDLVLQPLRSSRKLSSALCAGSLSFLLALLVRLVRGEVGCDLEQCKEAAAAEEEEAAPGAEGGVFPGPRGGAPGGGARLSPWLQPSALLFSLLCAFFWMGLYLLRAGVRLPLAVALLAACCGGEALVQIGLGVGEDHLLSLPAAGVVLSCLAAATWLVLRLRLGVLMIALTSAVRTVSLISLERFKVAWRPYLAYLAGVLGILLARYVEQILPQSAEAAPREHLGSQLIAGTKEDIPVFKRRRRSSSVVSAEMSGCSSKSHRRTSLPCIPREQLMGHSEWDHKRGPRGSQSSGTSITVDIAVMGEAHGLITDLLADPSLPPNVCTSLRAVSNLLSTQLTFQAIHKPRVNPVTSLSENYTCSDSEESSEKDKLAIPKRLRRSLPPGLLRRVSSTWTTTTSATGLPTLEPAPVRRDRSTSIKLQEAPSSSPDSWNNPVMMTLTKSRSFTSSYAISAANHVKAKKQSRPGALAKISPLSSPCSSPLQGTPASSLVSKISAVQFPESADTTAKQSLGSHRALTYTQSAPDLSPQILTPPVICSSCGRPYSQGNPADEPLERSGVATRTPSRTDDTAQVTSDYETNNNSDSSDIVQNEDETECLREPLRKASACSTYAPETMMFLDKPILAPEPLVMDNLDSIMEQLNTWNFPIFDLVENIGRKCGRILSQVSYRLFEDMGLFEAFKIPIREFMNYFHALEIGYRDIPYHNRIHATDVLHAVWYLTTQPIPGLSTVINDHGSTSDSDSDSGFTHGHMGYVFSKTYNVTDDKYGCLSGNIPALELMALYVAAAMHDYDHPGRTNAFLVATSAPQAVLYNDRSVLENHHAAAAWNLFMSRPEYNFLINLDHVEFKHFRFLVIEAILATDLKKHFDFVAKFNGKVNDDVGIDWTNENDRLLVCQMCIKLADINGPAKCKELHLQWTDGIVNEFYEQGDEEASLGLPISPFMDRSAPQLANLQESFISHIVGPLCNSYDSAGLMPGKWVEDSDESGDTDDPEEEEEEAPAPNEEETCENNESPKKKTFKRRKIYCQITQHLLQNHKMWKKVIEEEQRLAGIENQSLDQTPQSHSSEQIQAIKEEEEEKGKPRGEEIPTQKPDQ
Beta-2 adrenergic receptor, sequence (P07550 whole entry): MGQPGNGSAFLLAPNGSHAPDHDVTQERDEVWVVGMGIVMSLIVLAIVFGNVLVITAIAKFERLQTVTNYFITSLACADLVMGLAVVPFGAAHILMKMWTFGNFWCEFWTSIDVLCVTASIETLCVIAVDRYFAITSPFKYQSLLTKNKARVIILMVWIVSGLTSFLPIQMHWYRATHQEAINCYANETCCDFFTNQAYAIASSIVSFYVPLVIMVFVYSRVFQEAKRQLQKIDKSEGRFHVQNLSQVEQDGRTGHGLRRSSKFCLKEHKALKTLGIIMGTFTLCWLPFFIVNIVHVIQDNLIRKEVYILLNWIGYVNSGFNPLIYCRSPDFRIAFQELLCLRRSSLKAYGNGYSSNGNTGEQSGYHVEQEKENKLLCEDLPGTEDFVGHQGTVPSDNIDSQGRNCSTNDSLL

Consider `CCCN(CCC)C(=O)Cc1c(-c2ccc(Cl)cc2)nc2ccc(Cl)cn12` [ALPIDEM], for which the AC50 is over 30 µM in experiment [1]; over 30 µM in experiment [2]; over 30 µM in [3]; over 30 µM in experiment [4]; over 10 µM in experiment [5]; over 30 µM in experiment [6]. Besides, the AC50 in [7], in experiment [8], in experiment [9], in experiment [10], in experiment [11] and in [12] was over 30 µM each time.

As for `COc1cc2nccc(Oc3ccc(NC(=O)C4(C(=O)Nc5ccc(F)cc5)CC4)cc3)c2cc1OC` [CABOZANTINIB], the AC50 was over 30 µM in experiment [1]; over 30 µM in experiment [3]; over 30 µM in experiment [4]; 2.72 µM in experiment [5]; over 30 µM in [6]; over 30 µM in experiment [7]. In addition, the AC50 is over 30 µM in experiment [8], over 30 µM in experiment [9], over 30 µM in [10] and 5.8 µM in experiment [12].

Regarding `CCc1nc(C(N)=O)c(Nc2ccc(N3CCC(N4CCN(C)CC4)CC3)c(OC)c2)nc1NC1CCOCC1` [GILTERITINIB], the AC50 is over 30 µM in experiment [4], over 0.3 µM in experiment [5] and over 30 µM in experiment [10].

As to `CC[C@H](c1ccc(O)cc1)[C@@H](CC)c1ccc(O)cc1` [HEXESTROL], the AC50 in experiment [4] was 0.0252 µM; in [5], over 3 µM; in [10], 22.8 µM.

For `OC[C@H]1O[C@@H](c2ccc(F)c(Cc3cc4ccccc4s3)c2)[C@H](O)[C@@H](O)[C@@H]1O` [IPRAGLIFLOZIN], the figures for the AC50 in [4], in experiment [5] and in experiment [10] were over 30 µM, 19.8 µM and over 30 µM, respectively.

On to `CC(C)C[C@H](NC(=O)CNC(=O)c1cc(Cl)ccc1Cl)B(O)O` [IXAZOMIB], for which the AC50 in experiment [4], in experiment [5] and in experiment [10] was over 30 µM each time.

In the case of `CN1CCCCC1CCN1c2ccccc2Sc2ccc([S+](C)[O-])cc21` (centres undefined) [MESORIDAZINE], the results for the AC50 in experiment [4], in experiment [5] and in [10] were over 10 µM, over 30 µM and over 30 µM, respectively.

As to `Cc1ccccc1C(=O)Nc1ccc(C(=O)N2CCCC(N(C)C)c3ccccc32)cc1` (centres undefined) [MOZAVAPTAN], the AC50 is over 30 µM in [4], 23.7 µM in [5] and over 30 µM in [10].

On to `CC(=O)O[C@]1(C(C)=O)CC[C@H]2[C@@H]3C=C(C)C4=CC(=O)CC[C@@H]4[C@H]3CC[C@@]21C` [NOMEGESTROL ACETATE], for which the concentration at half-maximal activity (AC50) in experiment [1] is over 30 µM; in experiment [3], over 30 µM; in [4], over 30 µM; in experiment [5], over 10 µM; in [6] it was over 30 µM; in experiment [8], over 30 µM. The AC50 in experiment [9], in experiment [10] and in experiment [12] was over 30 µM throughout.

On to `O=C(O)c1cc(/N=N/c2ccc(O)c(C(=O)O)c2)ccc1O` [OLSALAZINE], for which the AC50 in experiment [4], in experiment [5] and in experiment [10] was over 30 µM throughout.

On to `Cc1onc(-c2ccccc2)c1C(=O)N[C@@H]1C(=O)N2[C@@H]1SC(C)(C)[C@@H]2C(=O)O` [OXACILLIN], for which the AC50 in experiment [4], in [5] and in [10] was over 30 µM in each case.

With `N#Cc1ccc2c(c1)N(CCCN1CCC(O)CC1)c1ccccc1S2` [PERICIAZINE], the AC50 is over 30 µM in experiment [4], 5.58 µM in experiment [5] and over 30 µM in experiment [10].

For the compound `FC(F)(F)c1ccc(CNc2ccc(Cc3c[nH]c4ncc(Cl)cc34)cn2)cn1` [PEXIDARTINIB], the figures for the AC50 in experiment [4], in experiment [5] and in [10] were over 30 µM, 0.389 µM and over 30 µM, respectively.

Regarding `Nc1ccc(C(=O)Oc2ccccc2)c(O)c1` [PHENYL AMINOSALICYLATE], the AC50 in experiment [4] is over 30 µM; in experiment [5] it was 17.1 µM; in [10] it was over 30 µM.

Take `CN1CCC(=C2c3ccccc3Sc3ccccc32)CC1` [PIMETHIXENE]: the AC50 in [4] was over 30 µM; in experiment [5] it was 0.0216 µM; in experiment [10], over 30 µM.

Turning to `[H]/N=C(\N/C(=N/[H])Nc1ccc(Cl)cc1)NC(C)C` [PROGUANIL], the AC50 in experiment [4], in experiment [5] and in experiment [10] was over 30 µM in each case.

In the case of `CC(CN1CC(=O)NC(=O)C1)N1CC(=O)NC(=O)C1` (centres undefined) [RAZOXANE], the AC50 in experiment [4], in experiment [5] and in experiment [10] was over 30 µM in each case.

Turning to `CC(C)OC(=O)CCC/C=C\C[C@@H]1[C@@H](/C=C/C(F)(F)COc2ccccc2)[C@H](O)C[C@@H]1O` [TAFLUPROST], the AC50 in [4], in [5] and in [10] was over 30 µM in each case.

Consider `CC[C@H]1OC(=O)[C@H](C)C(=O)[C@H](C)[C@@H](O[C@@H]2O[C@H](C)C[C@H](N(C)C)[C@H]2O)[C@](C)(OC)C[C@@H](C)C(=O)[C@H](C)[C@H]2N(CCCCn3cnc(-c4cccnc4)c3)C(=O)O[C@]12C` [TELITHROMYCIN], for which the AC50 in experiment [4], in experiment [5] and in experiment [10] was over 30 µM in each case.

For the origin of these results see ChEMBL document CHEMBL5291721, “A preclinical secondary pharmacology resource illuminates target-adverse drug reaction associations of marketed drugs” (Nat Commun, 2023).
